From patent US8129371B2, “Thienopyrimidine and pyrazolopyrimidine compounds and their use as mTOR kinase and PI3 kinase inhibitors” (Wyeth LLC, priority 2007, dated 2012)
Like-named read-outs stand apart in the source and are kept apart here.

Experiments:
Human mTOR (FLAG-TOR) = biological target: T1, Human mTOR (FLAG-TOR) (Homo sapiens, UniProt P42345); test: Human mTOR kinase assay with purified enzyme, DELFIA format; assay type: biochemical
T1 construct: FLAG
Method in brief: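 DELFIA readout: Eu-anti-P(T389)-S6K antibody (40 ng/mL, 1 h) on captured His6-S6K from the stopped reaction. Kinase step used purified FLAG-tagged human mTOR with test compound in HEPES (pH 7.4)/MnCl2/DTT buffer, 2 h at room temperature (linear 1–6 h), terminated by EDTA/EGTA.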

prostate line LNCap = test: In vitro cell culture growth assay (MTS), LNCap; assay type: cell-based; conditions: Homo sapiens, LNCaP, 72 h, LNCap cells, three days after drug treatment
Method in brief: (§1)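 Growth is reported as percent of vehicle-treated control grown in the same plate, with viability determined by metabolic conversion of MTS dye and absorbance read at 490 nm. Compounds were applied one day after plating and left for three days.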

breast line MDA468 = test: In vitro cell culture growth assay (MTS), MDA468; assay type: cell-based; conditions: Homo sapiens, 72 h, MDA468 cells, three days after drug treatment
Method in brief: as §1

PI3K [1] = biological target: T2, PI3K (Homo sapiens, UniProt P42336); test: Fluorescence polarization assay for PI3K; assay type: biochemical; conditions: read-out: PI3 Kinase α IC50
T2 construct: PI3 Kinase α IC50; other: PI3 Kinase α; other: PI3 Kinase α isoform, fluorescence polarization
Method in brief: (§2)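 Fluorescence-polarization competition readout: after 30–60 min of PIP2/ATP turnover in 1% DMSO, a stop mix with GST-GRP (70 nM) and red probe (10 nM) was added.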

PI3K [2] = biological target: T3, PI3K (Homo sapiens, UniProt P48736); test: Fluorescence polarization assay for PI3K; assay type: biochemical; conditions: read-out: PI3 Kinase γ IC50
T3 construct: PI3 Kinase γ IC50; other: PI3 Kinase γ; other: PI3 Kinase γ isoform, fluorescence polarization
Method in brief: as §2

[3] = purified human mTOR enzyme, DELFIA format
[4] = PI3 Kinase α isoform, fluorescence polarization
[5] = PI3 Kinase γ isoform, fluorescence polarization

T2 sequence (P42336 whole entry, canonical isoform): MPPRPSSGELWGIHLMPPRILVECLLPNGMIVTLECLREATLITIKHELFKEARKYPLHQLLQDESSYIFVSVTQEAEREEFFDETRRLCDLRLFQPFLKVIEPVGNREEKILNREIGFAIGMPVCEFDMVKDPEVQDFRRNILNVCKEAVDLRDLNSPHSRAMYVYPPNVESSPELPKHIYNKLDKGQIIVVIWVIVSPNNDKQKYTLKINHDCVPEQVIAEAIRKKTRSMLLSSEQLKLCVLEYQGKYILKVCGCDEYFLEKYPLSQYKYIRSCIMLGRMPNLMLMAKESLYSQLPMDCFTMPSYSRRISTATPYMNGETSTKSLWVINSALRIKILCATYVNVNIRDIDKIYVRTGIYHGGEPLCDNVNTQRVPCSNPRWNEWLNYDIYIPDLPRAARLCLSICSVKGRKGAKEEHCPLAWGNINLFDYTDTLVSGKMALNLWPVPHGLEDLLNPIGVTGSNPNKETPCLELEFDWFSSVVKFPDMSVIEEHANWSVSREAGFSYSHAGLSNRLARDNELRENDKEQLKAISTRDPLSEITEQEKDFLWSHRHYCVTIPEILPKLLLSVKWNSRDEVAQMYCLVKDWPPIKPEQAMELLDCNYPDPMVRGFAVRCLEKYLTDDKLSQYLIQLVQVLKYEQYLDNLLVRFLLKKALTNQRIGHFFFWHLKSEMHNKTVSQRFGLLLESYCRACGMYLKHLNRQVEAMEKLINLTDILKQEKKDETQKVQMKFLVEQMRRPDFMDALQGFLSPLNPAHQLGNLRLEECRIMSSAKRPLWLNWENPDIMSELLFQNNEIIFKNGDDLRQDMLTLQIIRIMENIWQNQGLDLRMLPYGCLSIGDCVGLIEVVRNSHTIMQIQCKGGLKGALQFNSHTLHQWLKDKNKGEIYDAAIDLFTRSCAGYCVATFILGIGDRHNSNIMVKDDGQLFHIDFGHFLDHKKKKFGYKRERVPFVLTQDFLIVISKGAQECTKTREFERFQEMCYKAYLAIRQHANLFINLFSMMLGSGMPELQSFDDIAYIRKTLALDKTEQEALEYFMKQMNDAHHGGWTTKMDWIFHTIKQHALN
T3 sequence (P48736 whole entry, canonical isoform): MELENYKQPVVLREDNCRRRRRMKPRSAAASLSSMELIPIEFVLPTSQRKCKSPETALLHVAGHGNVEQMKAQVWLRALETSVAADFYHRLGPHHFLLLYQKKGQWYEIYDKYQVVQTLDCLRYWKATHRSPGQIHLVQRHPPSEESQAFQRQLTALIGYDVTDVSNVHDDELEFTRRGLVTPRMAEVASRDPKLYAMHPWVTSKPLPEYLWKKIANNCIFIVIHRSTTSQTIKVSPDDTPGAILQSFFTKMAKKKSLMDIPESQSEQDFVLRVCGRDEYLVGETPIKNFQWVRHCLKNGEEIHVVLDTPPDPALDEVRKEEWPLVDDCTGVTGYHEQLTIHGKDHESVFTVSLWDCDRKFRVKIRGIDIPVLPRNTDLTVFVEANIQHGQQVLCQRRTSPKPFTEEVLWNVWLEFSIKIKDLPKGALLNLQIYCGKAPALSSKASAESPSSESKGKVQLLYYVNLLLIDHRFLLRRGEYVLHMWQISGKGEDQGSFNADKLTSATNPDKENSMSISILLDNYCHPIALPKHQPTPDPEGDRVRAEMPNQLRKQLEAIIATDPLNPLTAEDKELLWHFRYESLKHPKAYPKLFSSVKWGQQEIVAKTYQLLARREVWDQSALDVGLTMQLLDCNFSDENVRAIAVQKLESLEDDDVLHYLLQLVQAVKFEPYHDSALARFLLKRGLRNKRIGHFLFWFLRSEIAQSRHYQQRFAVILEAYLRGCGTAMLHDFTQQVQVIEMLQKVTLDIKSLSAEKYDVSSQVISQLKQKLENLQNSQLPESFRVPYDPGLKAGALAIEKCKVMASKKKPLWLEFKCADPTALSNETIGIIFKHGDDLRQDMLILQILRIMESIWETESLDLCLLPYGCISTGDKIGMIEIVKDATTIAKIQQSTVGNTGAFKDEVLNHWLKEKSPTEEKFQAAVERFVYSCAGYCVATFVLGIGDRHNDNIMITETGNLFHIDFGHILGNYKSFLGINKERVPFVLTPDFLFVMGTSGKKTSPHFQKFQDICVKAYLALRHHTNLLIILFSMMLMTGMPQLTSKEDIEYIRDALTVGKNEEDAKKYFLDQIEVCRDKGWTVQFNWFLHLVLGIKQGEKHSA

Row | SMILES | IC50 (Human mTOR (FLAG-TOR)) | IC50 (prostate line LNCap) | IC50 (breast line MDA468) | IC50 (PI3K [1]; PI3 Kinase α) | IC50 (PI3K [2]; PI3 Kinase γ) | IC50 (Human mTOR (FLAG-TOR); [3]) | IC50 (PI3K [1]; [4]) | IC50 (PI3K [2]; [5])
1 | O=C(Nc1ccc(-c2nc(N3CC4CCC(C3)O4)c3cnn(C4CCN(CC(F)(F)F)CC4)c3n2)cc1)NC1CC1 [Example 265, 1-cyclopropyl-3-(4-{4-(8-oxa-3-azabicyclo[3.2.1]oct-3-yl)-1-[1-(2,2,2-trifluoroethyl)piperidin-4-yl]-1H-pyrazolo[3,4-d]pyrimidin-6-yl}phenyl)urea] | 1.2 nM | 18 nM | 700 nM | 3470 nM | > 10000 nM |  |  | 
2 | CCNC(=O)Nc1ccc(-c2nc(N3CC4CCC(C3)O4)c3cnn(C4CCNCC4)c3n2)cc1 [Example 28, 1-ethyl-3-{4-[4-(8-oxa-3-azabicyclo[3.2.1]oct-3-yl)-1-piperidin-4-yl-1H-pyrazolo[3,4-d]pyrimidin-6-yl]phenyl}urea] | 1.8 nM | 790 nM | 1300 nM | 2160 nM | 9000 nM |  |  | 
3 | O=C(Nc1ccc(-c2nc(N3C[C@@H]4C[C@H]3CO4)c3cnn(CC(F)(F)F)c3n2)cc1)Nc1ccc(N2CCNCC2)cc1 [Example 393, 1-(4-{4-[(1S,4S)-2-oxa-5-azabicyclo[2.2.1]hept-5-yl]-1-(2,2,2-trifluoroethyl)-1H-pyrazolo[3,4-d]pyrimidin-6-yl}phenyl)-3-(4-piperazin-1-ylphenyl)urea] |  | 1 nM | 14 nM |  |  | 1.75 nM | 330 nM | 3090 nM
4 | c1cc2cc(-c3nc(N4CC5CCC(C4)O5)c4sccc4n3)ccc2[nH]1 [Example 419, 2-(1H-indol-5-yl)-4-(8-oxa-3-azabicyclo[3.2.1]oct-3-yl)thieno[3,2-d]pyrimidine] |  | 1350 nM | 7900 nM |  |  | 22 nM | 8620 nM | > 10000 nM
5 | O=C(NCCF)Nc1ccc(-c2nc(N3CC4CCC(C3)O4)c3cnn(CC(F)(F)F)c3n2)cc1 [Example 6, 1-(2-fluoroethyl)-3-{4-[4-(8-oxa-3-azabicyclo[3.2.1]oct-3-yl)-1-(2,2,2-trifluoroethyl)-1H-pyrazolo[3,4-d]pyrimidin-6-yl]phenyl}urea] | 0.22 nM | < 27 nM | < 27 nM | 2750 nM | 6570 nM |  |  | 
6 | CC(C)C(=O)N1CCC(n2ncc3c(N4CC5CCC(C4)O5)nc(-c4ccc(NC(=O)NCCF)cc4)nc32)CC1 [Example 85, 1-(2-fluoroethyl)-3-{4-[1-(1-isobutyrylpiperidin-4-yl)-4-(8-oxa-3-azabicyclo[3.2.1]oct-3-yl)-1H-pyrazolo[3,4-d]pyrimidin-6-yl]phenyl}urea] | 0.47 nM | 90 nM | 300 nM | 2640 nM | > 10000 nM |  |  | 
7 | O=C(Nc1ccc(-c2nc(N3CC4CCC(C3)O4)c3cnn(CC(F)(F)F)c3n2)cc1)Nc1ccc(N2CCNCC2)cc1 [Example 317, 1-{4-[4-(8-oxa-3-azabicyclo[3.2.1]oct-3-yl)-1-(2,2,2-trifluoroethyl)-1H-pyrazolo[3,4-d]pyrimidin-6-yl]phenyl}-3-(4-piperazin-1-ylphenyl)urea] |  | < 1 nM | 1 nM |  |  | 0.255 nM | 77 nM | > 10000 nM
8 | O=C(Nc1ccc(CO)cc1)Nc1ccc(-c2nc(N3CC4CCC(C3)O4)c3cnn(CCO)c3n2)cc1 [Example 201, 1-{4-[1-(2-hydroxyethyl)-4-(8-oxa-3-azabicyclo[3.2.1]oct-3-yl)-1H-pyrazolo[3,4-d]pyrimidin-6-yl]phenyl}-3-[4-(hydroxymethyl)phenyl]urea] | 0.265 nM | 13 nM | 12 nM | 50 nM | 1760 nM |  |  | 
9 | CCn1ncc2c(N3CC4CCC(C3)O4)nc(-c3ccc(NC(=O)Nc4ccc(NC)nc4)cc3)nc21 [Example 286, 1-{4-[1-ethyl-4-(8-oxa-3-azabicyclo[3.2.1]oct-3-yl)-1H-pyrazolo[3,4-d]pyrimidin-6-yl]phenyl}-3-[6-(methylamino)pyridin-3-yl]urea] | 0.9 nM | 17 nM | 200 nM | 270 nM | 14900 nM |  |  | 
